The text below walks through data of patent publication US20210300943A1, “OGA INHIBITOR COMPOUNDS” (Janssen Pharmaceutica NV, priority 2018, published 2021).

Structures can show the parent of a compound that is named as a salt.

Series [1] addresses T1, recombinant human Meningioma Expressed Antigen 5 (MGEA5), also referred to as O-GlcNAcase (OGA) (Homo sapiens, UniProt O60502).
T1 construct: Full length OGA enzyme was purchased at OnGene (cat #TP322411); purchased OnGene (so in the source)
T1 sequence (O60502 1-916): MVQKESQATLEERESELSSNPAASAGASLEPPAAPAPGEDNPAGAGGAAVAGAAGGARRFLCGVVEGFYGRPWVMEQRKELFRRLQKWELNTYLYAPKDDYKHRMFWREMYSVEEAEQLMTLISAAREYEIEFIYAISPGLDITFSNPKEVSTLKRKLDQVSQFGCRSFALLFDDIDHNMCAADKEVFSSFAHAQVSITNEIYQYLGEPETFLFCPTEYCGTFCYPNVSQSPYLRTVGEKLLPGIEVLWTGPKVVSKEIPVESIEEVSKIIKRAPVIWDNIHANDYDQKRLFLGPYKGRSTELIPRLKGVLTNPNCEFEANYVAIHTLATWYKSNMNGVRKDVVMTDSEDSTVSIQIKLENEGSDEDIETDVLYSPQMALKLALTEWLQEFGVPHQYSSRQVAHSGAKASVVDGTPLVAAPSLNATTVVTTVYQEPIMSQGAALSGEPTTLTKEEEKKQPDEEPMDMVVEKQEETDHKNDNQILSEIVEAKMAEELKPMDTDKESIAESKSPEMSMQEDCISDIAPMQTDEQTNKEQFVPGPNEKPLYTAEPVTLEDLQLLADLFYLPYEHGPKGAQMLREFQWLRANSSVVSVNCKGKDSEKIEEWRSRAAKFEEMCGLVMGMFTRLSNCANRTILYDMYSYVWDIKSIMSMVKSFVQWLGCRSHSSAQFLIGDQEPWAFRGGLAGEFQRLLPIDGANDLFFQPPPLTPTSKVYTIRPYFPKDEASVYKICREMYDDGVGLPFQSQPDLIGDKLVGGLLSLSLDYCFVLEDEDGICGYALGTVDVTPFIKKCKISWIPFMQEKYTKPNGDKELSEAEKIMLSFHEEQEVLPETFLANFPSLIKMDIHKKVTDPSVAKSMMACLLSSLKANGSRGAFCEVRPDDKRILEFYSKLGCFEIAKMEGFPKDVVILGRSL
The series is described as follows: OGA biochemical assay (inhibition of FM-GlcNAc hydrolysis, fluorescence). Particulars: for Enzymatic Emax (%) / Emax: maximal effect; for IC50: read-out: Enzymatic hOGA, pIC50 (converted); for Emax: read-out: Enzymatic Emax (%). The essentials:
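Full-length recombinant OGA (2 nM) pre-incubated with compound 60 min at room temperature, then FM-GlcNAc (100 µM final) added in citrate/phosphate buffer pH 7.2 with 0.005% Tween-20. After 6 h at room temperature, stopped with carbonate pH 11.0; fluorescein read at 485/538 nm; IC50 and Hill coefficient from curve fit.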

For series [2], the target named is T2, OGA (Homo sapiens, UniProt O60502).
T2 construct: endogenous in cells; host or cells: HEK293 cells inducible for P301L mutant human Tau (2N4R)
T2 sequence (O60502 1-916): T1 sequence (O60502 1-916)
The series is described as follows: OGA cellular assay (ICC detection of O-GlcNAcylated proteins in HEK293 cells inducible for P301L mutant human Tau). Particulars: for Emax: HEK293, HEK293 cells inducible for P301L mutant human Tau; for Emax / Cellular Emax (%): maximal effect, Thiamet G 200 uM as maximum; for EC50 / Cellular Emax (%): HEK293 cells inducible for P301L mutant human Tau; for EC50: 6 hours incubation, read-out: Cellular hOGA, pEC50 (converted). In kind it is cell-based. The essentials: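 HEK293 cells inducible for P301L Tau, in low-glucose assay medium, treated 6 h with compound at 0.2% DMSO. O-GlcNAcylated proteins detected by CTD110.6 immunostaining, imaged at 488 nm with Hoechst nuclear counts for toxicity. IC50 from non-linear regression, 200 uM Thiamet G as maximum.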

Turning to `Cc1cc(C[C@H]2CCCN(C(C)c3ccc4c(n3)OCC(=O)N4)C2)cc(C)n1` (single isomer, unassigned) [Product 61], the melting point – broadly, the temperature, or range, at which the solid turns liquid – amounted to 62.45 °C. Also, in series [1], the “Enzymatic Emax (%)” value is reported as 102% and the IC50 is 39.8 nM. Moreover, in series [2], the Emax (in general, the size of the effect at its maximum, as opposed to the concentration needed) turned out to be 45% and the EC50 was more than 1000 nM.
With `Cc1cc(NCC2CCCN(C(C)c3ccc4c(n3)OCCO4)C2)cc(C)n1` (stereo not drawn) (as salt: HCl) [Product 21], the melting point came out at 193 °C.
`COc1cc(NCC2CCCN(C(C)c3ccc4c(c3)OCC4)C2)cc(C)n1` (stereo not drawn) (as salt: HCl) [Product 30] came in with a melting point of 261.3 °C.
On the same count and under the same terms, next, `Cc1cc(NCC2CCCN(C(C)c3cc4c(cc3F)OCCO4)C2)cc(C(F)(F)F)n1` (stereo not drawn) (as salt: HCl) [Product 99]: 235.3 °C.
The molecule `COc1cc(NCC2CCCN(C(C)c3cc4c(cc3F)OCCO4)C2)cc(C)n1` (stereo not drawn) (as salt: HCl) [Product 38] showed a melting point of 164.7 °C.
The molecule `Cc1cc(NCC2CCCN(C(C)c3ccc4c(c3)OCC4)C2)cc(C)n1` (stereo not drawn) (as salt: HCl) [Product 22] came in with a melting point of 248.4 °C.
With `COc1cc(NCC2CCCN(C(C)c3ccc4c(n3)OCCO4)C2)cc(C)n1` (stereo not drawn) (as salt: HCl) [Product 23], the melting point is 266.7 °C.
Consider `Cc1cc(C[C@H]2CCCN(C(C)c3cc4c(cc3F)OCCO4)C2)cc(C)n1` (single isomer, unassigned) [Product 42], for which, in series [1], the Emax was 99% and the IC50 was 2 nM. Also, in series [2], the Emax came to 86% and the EC50 is 6.31 nM.
For `Cc1cc(NCC2CCCN(C(C)c3ccc4c(c3)OCC4)C2)cc(C)n1` (stereo not drawn) [Product 22] the same measures were 104%, 7.94 nM, 82% and 7.94 nM.
`Cc1cc([C@H]2CCCN([C@@H](C)c3ccc4c(c3)OCC4)C2)cc(C)n1` (racemic) [Product 4]: in series [1], the Emax was 103% and the IC50 is 5.01 nM. In series [2], the Emax stood at 70% and the EC50 is 20 nM.
For `Cc1cc(C[C@H]2CCCN(C(C)c3ccc4c(c3)OCC4)C2)cc(C)n1` (mixture of isomers) [Product 47] the same measures were 103%, 3.98 nM, 81% and 15.8 nM.
With `Cc1cc(CO[C@H]2CCCN(C(C)c3ccc4c(n3)OCCO4)C2)cc(C)n1` (single isomer, unassigned) [Product 166], in series [1], the Emax was found to be 98% and the IC50 is 10 nM. Also, in series [2], the EC50 was 100 nM and the “Cellular Emax (%)” value turned out to be 67%.
As to `Cc1cc([C@@H]2CCCN([C@@H](C)c3ccc4c(n3)OCCO4)C2)cc(C)n1` (single isomer, unassigned) [Product 161], in series [1], the Emax came to 79% and the IC50 is 3160 nM. In series [2], the Emax was -4% and the EC50 is more than 1000 nM.
For `CC(c1nc2c(cc1F)OCCO2)N1CCC[C@H](NCc2ccc(F)cc2)C1` (stereo partly drawn) [Product 196] the same measures were 95%, 39.8 nM, 70% and 251 nM.
The like results for `Cc1cc(CO[C@H]2CCCN([C@H](C)c3ccc4c(n3)OCCO4)C2)cc(C)n1` (mixture of isomers) [Product 111] were, in that order, 98%, 12.6 nM, 29% and 316 nM.
The like results for `Cc1cc(OC[C@H]2CCCN(C(C)c3ccc4c(n3)OCCO4)C2)cc(C)n1` (single isomer, unassigned) [Product 139] were, in that order, 98%, 7.94 nM, 88% and 20 nM.
`Cc1cc(OC[C@H]2CCCN([C@@H](C)c3nc4c(cc3F)OCCO4)C2)cc(C)n1` [Product 153]: in series [1], the Emax was determined as 102% and the IC50 was 1.58 nM. In addition, in series [2], the Emax was determined as 94% and the EC50 was 2.51 nM.
For `Cc1cc(NC[C@H]2CCCN(C(C)c3nc4c(cc3F)OCCO4)C2)cc(C)n1` (stereo partly drawn) [Product 181] the same measures were 101%, 3.98 nM, 92% and 1.58 nM.
For `Cc1cc(C2CCCN([C@H](C)c3ccc4c(n3)OCCO4)C2)nc(C)n1` (mixture of isomers) [Product 113] the same measures were 100%, 100 nM, 55% and 794 nM.
As to `Cc1cc(C[C@H]2CCCN(C(C)c3ccc4c(n3)OCC(=O)N4)C2)cc(C)n1` (mixture of isomers) [Product 59], in series [1], the Emax worked out at 102% and the IC50 was 126 nM. Besides, in series [2], the Emax was 23% and the EC50 is more than 1000 nM.
As to `Cc1cc(OC[C@H]2CCCN(C(C)c3nc4c(cc3F)CCO4)C2)cc(C)n1` (mixture of isomers) [Product 178], in series [1], the Emax was 95% and the IC50 was 2.51 nM. Besides, in series [2], the Emax worked out at 104% and the EC50 is 2.51 nM.
For the molecule `Cc1cc(CO[C@H]2CCCN(C(C)c3nc4c(cc3F)OCCO4)C2)cc(C)n1` (stereo partly drawn) [Product 168], in series [1], the Emax was determined as 99% and the IC50 is 3.16 nM. Moreover, in series [2], the Emax came to 69% and the EC50 is 31.6 nM.
Turning to `Cc1cc(OC[C@H]2CCCN(C(C)c3nc4c(cc3F)CCO4)C2)cc(C)n1` (single isomer, unassigned) [Product 180], in series [1], the “Enzymatic Emax (%)” value was found to be 99% and the IC50 was 1.58 nM. Besides, in series [2], the EC50 is 1 nM and the “Cellular Emax (%)” value was determined as 79%.
With `Cc1cc(CN[C@H]2CCCN(C(C)c3ccc4c(n3)OCCO4)C2)cc(C)n1` (stereo partly drawn) [Product 194], in series [1], the Emax was determined as 97% and the IC50 was 20 nM. Besides, in series [2], the Emax turned out to be 71% and the EC50 is 251 nM.
The like results for `Cc1cc(C[C@H]2CCCN(C(C)c3cc4c(cc3F)OCCO4)C2)cc(C(F)(F)F)n1` (mixture of isomers) [Product 68] were, in that order, 102%, 6.31 nM, 79% and 39.8 nM.
The like results for `Cc1cc(OC[C@H]2CCCN([C@@H](C)c3ccc4c(n3)OCCO4)C2)cc(C)n1` (single isomer, unassigned) [Product 140] were, in that order, 72%, 3980 nM, 2% and more than 1000 nM.
